Like-named read-outs stand apart in the source and are kept apart here.
Legend:
Format in all cases: in vivo, mouse
inseminated C57BL/6 mice = test system: inseminated C57BL/6 mice
Text: C57BL/6 male and female mice greater than seven weeks old were obtained from Takonic (Germantown, N.Y.). The mice were acclimated for at least five days prior to mating and housed in a twelve hour on and twelve hour off light schedule. The mice were mated in the evenings and vaginal plugs were checked for the next morning. Mating in mice is normally detected by the occurrence of vaginal plugs, which are formed by a mixture of the secretions of the vesicular and coagulating glands of the male and usually fill the vagina from cervix to vulva. The day of plugging was labeled Embryonic day 0 (E0). All animal studies were conducted according to the protocols approved by the Animal Ethics Committee of Children's Hospital. Plugged female mice were randomized and received either AGM-1470 30 mg/kg s.c. or saline on E1, 7, or 14. The dependence of female reproductive system on angiogenesis was examined by treating sexually mature inseminated and cycling mice with selective angiogenesis inhibitor AGM-1470.
Mice were sacrificed on either E6, 9, 13 or 18 (one day prior to term gestation). Fetal viability was assessed and statistical analysis was performed with a Fisher's Exact Test.

intersite endometrium = assay: Factor VIII microvessel density of intersite endometrium on E6
Protocol: To test this hypothesis, mice were treated with AGM-1470 on E1 and sacrificed at E6, a time point prior to placental formation. The uteri of the mice were examined by antibodies to Factor VIII and PCNA to determine if there was any difference in the degree of endometrial angiogenesis or the proliferative response of the decidua induced by trophoblast invasion. However, in the decidua there was a 50% decrease in the proliferation of stromal cells in the AGM-1470 treated mice as compared to control (PCNA staining/X630 field in control was 48%±3, n=4, versus 24%±5, n=4, P≦0.005 in AGM-1470 treated mice. See FIG. 4A and 4B). […]
To determine microvessel density, Carnoy's-fixed tissue sections were pretreated with 2 microgram/ml Proteinase K (Boehringer Mannheim, Mannheim, Germany) at 37° Celsius for 15 minutes before staining with a rabbit polyclonal antibody against mouse factor VIII (Dako, Carpinteria, Calif.). Positive staining was detected by incubating sequentially with a secondary antibody against rabbit conjugated to horseradish peroxidase (Dako) and diaminobenzidine tetrahydrochloride (DAB) (Dako) as a chromagen. […] Microvessel density was determined by light microscopy. Each count was expressed as the number of microvessels identified within a selected field. Ten fields per section were counted. […]

endometrium = assay: Cycling mice, chronic treatment: examination of the uterus
Protocol: Mice were randomized and received either AGM-1470 30 mg/kg s.c. or saline 0.1 ml s.c. every other day for 16 days (approximately four estrous cycles). On the last of four days of treatment mice were housed with male mice to see if successful mating and conception would occur. On day 16 mice were weighed and sacrificed by cervical dislocation. The ovaries were resected enbloc, fixed in Carnoy's fixative, and embedded in paraffin according to standard histologic techniques. Sections were cut at 6 microns and stained with hematoxylin and eosin.
To determine microvessel density, Carnoy's-fixed tissue sections were pretreated with 2 microgram/ml Proteinase K (Boehringer Mannheim, Mannheim, Germany) at 37° Celsius for 15 minutes before staining with a rabbit polyclonal antibody against mouse factor VIII (Dako, Carpinteria, Calif.). Positive staining was detected by incubating sequentially with a secondary antibody against rabbit conjugated to horseradish peroxidase (Dako) and diaminobenzidine tetrahydrochloride (DAB) (Dako) as a chromagen. Sections were counterstained with methyl green (Schmid & Co., Stuttgart, Germany) and mounted in Permount (Fisher, Fair Lawn, N.J.). Microvessel density was determined by light microscopy. Each count was expressed as the number of microvessels identified within a selected field. Ten fields per section were counted.
To determine the rate of cellular proliferation, staining for proliferating cell nuclear antigen (PCNA) was performed. Carnoy's-fixed sections were pretreated in target unmasking fluid (Signet Laboratories, Dedham, Mass.) for 10 minutes at 90° for antigen retrieval. Immunohistochemical staining was performed with an anti-PCNA murine monoclonal antibody (Signet). Positive staining was detected by using horse radish peroxidase-conjugated secondary (Dako) and tertiary (Dako) antibodies, and DAB as a chromagen. The PCNA labeling index was determined by counting the percentage of stained cells under light microscopy within selected 630× fields. A minimum of 1,000 cells were counted for each specimen.
For staining of apoptotic cells, Carnoy's-fixed sections were treated according to the protocol of the Apoptag manufacturer (Oncor, Gaithersburg, Md.) except the pretreatment step with Proteinase K was omitted. After TdT labeling of specimens, positive staining was detected with a peroxidase-labeled antibody against deoxyuridine peroxidase substrate. Sections were counterstained as described above. The apoptotic index was determined by counting the percentage of stained cells under light microscopy within selected 630× fields. A minimum of 1,000 cells was counted for each specimen.
In experiments with AGM-1470 treatment of pregnant mice, transverse sections through embryos contained within the uterus were stained. Microvessels density was determined at the intersite endometrium and PCNA was determined in the decidual stroma. In experiments with AGM-1470 treatment of non-pregnant mice, transverse sections through the endometrium were stained for factor VIII, PCNA or apoptotic cells at the level of the endometrial lumen at its widest diameter. Statistical analysis was performed with ANOVA on ranked data to account for the expected variation of endometrial angiogenesis and glandular proliferation in the control due to different phases of the estrous cycle.

[1] = 30 mg/kg every other day for 16 days
[2] = 30 mg/kg every other day for 16 days, n=6
[3] = 30 mg/kg every other day for 16 days, vs control

CO[C@@H]1[C@H](OC(=O)NC(=O)CCl)CC[C@]2(CO2)[C@H]1[C@@]1(C)O[C@@H]1CC=C(C)C [AGM-1470, O-chloroacetylcarbamoyl fumagillol]
toxicity to the pregnant mothers (inseminated C57BL/6 mice; 30 mg/kg single dose): no signs of toxicity | birth defects (inseminated C57BL/6 mice; drug given to pregnant mice during pregnancy): birth defects were not documented | fetal resorption on E18 (inseminated C57BL/6 mice; single dose 30 mg/kg s.c. on E1 (pre-implantation), n=69 embryos): 100% | fetal resorption on E18 (inseminated C57BL/6 mice; single dose 30 mg/kg s.c. on E7 (post-implantation), n=36): 100% | litters (inseminated C57BL/6 mice; single dose 30 mg/kg s.c. on E14, n=46): normal litters | decrease in microvessel density in intersite endometrium vs control (intersite endometrium; treated on E1, sacrificed E6): 52% | microvessel density in intersite endometrium (intersite endometrium; treated on E1, sacrificed E6, n=4): 57±13 vessels/X250 field | decrease in microvessel density (Factor VIII) vs control (endometrium; [1]): 41% | decrease in number of proliferating vessels (endometrium; [1]): 71% | decrease in percentage of proliferating glandular epithelial cells (PCNA) (endometrium; [1]): 67% | decrease in proliferation rate of endometrial stromal cells (PCNA) (endometrium; [1]): 68% | number of proliferating vessels (endometrium; 30 mg/kg every other day for 16 days, n=5): 5±2 vessels/X630 field | endometrial glands (endometrium; [2]): 3±2 glands/X250 field | percentage of proliferating glandular epithelial cells (PCNA) (endometrium; [2]): 10%±3 | proliferation rate of endometrial stromal cells (PCNA) (endometrium; [2]): 5% ±2 | apoptotic index (Apo-Tag staining) (endometrium; [3]): not significantly different | uterus thickness (endometrium; [3]): consistently thinner | fewer endometrial glands than control (endometrium; 30 mg/kg s.c. every other day for 16 days): 63%

Source: patent US6441027B1, “Method of regulating the female reproductive system through angiogenesis inhibitors” (Children's Medical Center Corporation, priority 1996, dated 2002)
